Tests used:
[1] = retrospective analysis of long term open-label studies in epilepsy: blood glucose; type: in vivo, human; settings: 14 epilepsy patients, overweight (>100 kg) with high blood glucose (>115 mg/dl); study mean daily dosage 622 mg/day, mean duration 689 days
[2] = human epilepsy; adjunctive therapy or monotherapy; cited from earlier work
[3] = several rodent models; cited from earlier work
[4] = animal model of kindled epilepsy; cited from earlier work

CC1(C)O[C@@H]2[C@@H](CO[C@@]3(COS(N)(=O)=O)OC(C)(C)O[C@@H]23)O1 [topiramate, 2,3:4,5-bis-O-(1-methylethylidene)-β-D-fructopyranose sulfamate]
reduction in blood glucose [1]: 5.8%
efficacy in treating seizures in clinical trials [2]: effective as adjunctive therapy or as monotherapy
seizure block in rodent models of epilepsy [3]: effectively block seizures
seizure block in kindled epilepsy model [4]: effectively block seizures

— patent US6362220B1, “Anticonvulsant derivatives useful in reducing blood glucose levels” (Ortho-McNeil Pharmaceutical, Inc., priority 1999, dated 2002)
